Source: US20260256792A1, “TREATMENT OF CHRONIC SPONTANEOUS URTICARIA BY ADMINISTERING (R)-2-[3-[4-AMINO-3-(2-FLUORO-4-PHENOXY-PHENYL)PYRAZOLO[3,4-D]PYRIMIDIN-1-YL]PIPERIDINE-1-CARBONYL]-4-METHYL-4-[4-(OXETAN-3-YL)PIPERAZIN-1-YL]PENT-2-ENENITRILE” (priority 2023, published 2026)

Tested on: angioedema in CSU patients
Experiment: Phase 2 CSU study: angioedema activity score over 7 days (AAS7)
Assay type: in vivo, human
Details: 400 mg TID; for AAS7 = 0, OR (95% CI) for rilzabrutinib vs. placebo / AAS7 = 0, RRD (%) for rilzabrutinib vs. placebo (95% CI) / AAS7 Post-baseline Mean (SD) / Participants with AAS7 = 0, Responder n (%) / AAS7 % Change difference for rilzabrutinib vs. placebo LS Mean (95% CI) / AAS7 Change difference for rilzabrutinib vs. placebo LS Mean (95% CI) / AAS7 Change from baseline LS Mean (SE) / AAS7 % Change from baseline LS Mean (SE) / AAS7 = 0, Non-responder n (%): angioedema at baseline; for Non-responder n (%), AAS7 = 0 / OR (95% CI) for rilzabrutinib vs. placebo, AAS7 = 0 / RRD (%) for rilzabrutinib vs. placebo (95% CI), AAS7 = 0 / Responder n (%), AAS7 = 0: outlier removed
Source text: The study comprises a 12 week, randomized, double-blind, placebo-controlled, multi-center, dose-ranging efficacy and safety phase, followed by a 40 week open label extension (OLE) phase (see FIG. 1). The study consists of three phases and an optional OLE phase. […] The weekly angioedema activity score (AAS7) was proposed as a tertiary endpoint. […] Patients were to complete the AAS using the e-diary. The e-diary was to be used once daily on the same time of each day recording of participant's answers to the angioedema activity score over 7 days (AAS7) questionnaire.

CC(C)(C=C(C#N)C(=O)N1CCC[C@@H](n2nc(-c3ccc(Oc4ccccc4)cc3F)c3c(N)ncnc32)C1)N1CCN(C2COC2)CC1 [rilzabrutinib, (R)-2-[3-[4-amino-3-(2-fluoro-4-phenoxy-phenyl)pyrazolo[3,4-d]pyrimidin-1-yl]piperidine-1-carbonyl]-4-methyl-4-[4-(oxetan-3-yl)piperazin-1-yl]pent-2-enenitrile]
AAS7 = 0, OR (95% CI) for rilzabrutinib vs. placebo (Week 8, omalizumab-naïve): 0.690
AAS7 = 0, RRD (%) for rilzabrutinib vs. placebo (95% CI) (Week 8, omalizumab-naïve): −6.2 %
AAS7 Post-baseline Mean (SD) (Week 8, omalizumab-naïve): 12.20 (13.05)
Participants with AAS7 = 0, Responder n (%) (Week 8, omalizumab-naïve): 6 (26.1) n (%)
AAS7 % Change difference for rilzabrutinib vs. placebo LS Mean (95% CI) (Week 9, ITT): −34.54 (−64.85, −4.23) %
AAS7 Change difference for rilzabrutinib vs. placebo LS Mean (95% CI) (Week 9, ITT): −13.12 (−23.93, −2.31)
AAS7 Change from baseline LS Mean (SE) (Week 9, ITT): −42.57 (4.09)
AAS7 Post-baseline Mean (SD) (Week 9, ITT): 7.98 (11.59)
Non-responder n (%), AAS7 = 0 (Week 9, omalizumab-naïve): 15 (44.1) n (%)
OR (95% CI) for rilzabrutinib vs. placebo, AAS7 = 0 (Week 9, omalizumab-naïve): 1.155
RRD (%) for rilzabrutinib vs. placebo (95% CI), AAS7 = 0 (Week 9, omalizumab-naïve): 3.6 %
Responder n (%), AAS7 = 0 (Week 9, omalizumab-naïve): 19 (55.9) n (%)
AAS7 % Change difference for rilzabrutinib vs. placebo LS Mean (95% CI) (Week 9, omalizumab-naïve): −37.56 (−71.28, −3.83) %
AAS7 % Change from baseline LS Mean (SE) (Week 9, omalizumab-naïve): −84.73 (12.57) %
AAS7 = 0, Non-responder n (%) (Week 9, omalizumab-naïve): 13 (56.5) n (%)
AAS7 = 0, OR (95% CI) for rilzabrutinib vs. placebo (Week 9, omalizumab-naïve): 1.358
AAS7 = 0, RRD (%) for rilzabrutinib vs. placebo (95% CI) (Week 9, omalizumab-naïve): 6.9 %
AAS7 Post-baseline Mean (SD) (Week 9, omalizumab-naïve): 8.52 (12.19)
Participants with AAS7 = 0, Responder n (%) (Week 9, omalizumab-naïve): 10 (43.5) n (%)
AAS7 % Change difference for rilzabrutinib vs. placebo LS Mean (95% CI) (Week 10, ITT): −38.35 (−79.56, 2.86) %
AAS7 % Change from baseline LS Mean (SE) (Week 10, ITT): −87.33 (15.54) %
AAS7 Change difference for rilzabrutinib vs. placebo LS Mean (95% CI) (Week 10, ITT): −13.07 (−24.96, −1.18)
AAS7 Change from baseline LS Mean (SE) (Week 10, ITT): −43.40 (4.49)
AAS7 Post-baseline Mean (SD) (Week 10, ITT): 7.10 (9.58)
Non-responder n (%), AAS7 = 0 (Week 10, omalizumab-naïve): 16 (47.1) n (%)
RRD (%) for rilzabrutinib vs. placebo (95% CI), AAS7 = 0 (Week 10, omalizumab-naïve): 6.0 %
Responder n (%), AAS7 = 0 (Week 10, omalizumab-naïve): 18 (52.9) n (%)
AAS7 % Change from baseline LS Mean (SE) (Week 10, omalizumab-naïve): −89.99 (16.85) %
AAS7 = 0, Non-responder n (%) (Week 10, omalizumab-naïve): 13 (56.5) n (%)
AAS7 = 0, OR (95% CI) for rilzabrutinib vs. placebo (Week 10, omalizumab-naïve): 1.627
AAS7 = 0, RRD (%) for rilzabrutinib vs. placebo (95% CI) (Week 10, omalizumab-naïve): 11.0 %
AAS7 Post-baseline Mean (SD) (Week 10, omalizumab-naïve): 6.83 (9.73)
Participants with AAS7 = 0, Responder n (%) (Week 10, omalizumab-naïve): 10 (43.5) n (%)
AAS7 % Change difference for rilzabrutinib vs. placebo LS Mean (95% CI) (Week 11, ITT): −15.53 (−43.68, 12.62) %
AAS7 Change difference for rilzabrutinib vs. placebo LS Mean (95% CI) (Week 11, ITT): −6.88 (−18.42, 4.67)
AAS7 Change from baseline LS Mean (SE) (Week 11, ITT): −40.74 (4.34)
AAS7 Post-baseline Mean (SD) (Week 11, ITT): 9.40 (13.36)
Non-responder n (%), AAS7 = 0 (Week 11, omalizumab-naïve): 15 (44.1) n (%)
OR (95% CI) for rilzabrutinib vs. placebo, AAS7 = 0 (Week 11, omalizumab-naïve): 1.142
RRD (%) for rilzabrutinib vs. placebo (95% CI), AAS7 = 0 (Week 11, omalizumab-naïve): 3.1 %
Responder n (%), AAS7 = 0 (Week 11, omalizumab-naïve): 19 (55.9) n (%)
AAS7 = 0, Non-responder n (%) (Week 11, omalizumab-naïve): 13 (56.5) n (%)
AAS7 = 0, OR (95% CI) for rilzabrutinib vs. placebo (Week 11, omalizumab-naïve): 1.160
AAS7 = 0, RRD (%) for rilzabrutinib vs. placebo (95% CI) (Week 11, omalizumab-naïve): 3.1 %
AAS7 Post-baseline Mean (SD) (Week 11, omalizumab-naïve): 9.80 (13.81)
Participants with AAS7 = 0, Responder n (%) (Week 11, omalizumab-naïve): 10 (43.5) n (%)
AAS7 % Change difference for rilzabrutinib vs. placebo LS Mean (95% CI) (Week 12, ITT): −19.84 (−46.44, 6.76) %
AAS7 % Change from baseline LS Mean (SE) (Week 12, ITT): −82.82 (10.03) %
AAS7 Change difference for rilzabrutinib vs. placebo LS Mean (95% CI) (Week 12, ITT): −8.06 (−19.05, 2.94)
AAS7 Change from baseline LS Mean (SE) (Week 12, ITT): −43.36 (4.14)
AAS7 Post-baseline Mean (SD) (Week 12, ITT): 7.37 (12.64)
patients with angioedema score (AAS7) of 0 (Week 12, omalizumab-naïve): 60.9%
Non-responder n (%), AAS7 = 0 (Week 12, omalizumab-naïve): 12 (35.3) n (%)
OR (95% CI) for rilzabrutinib vs. placebo, AAS7 = 0 (Week 12, omalizumab-naïve): 1.685
RRD (%) for rilzabrutinib vs. placebo (95% CI), AAS7 = 0 (Week 12, omalizumab-naïve): 13.0 %
Responder n (%), AAS7 = 0 (Week 12, omalizumab-naïve): 22 (64.7) n (%)
AAS7 = 0, Non-responder n (%) (Week 12, omalizumab-naïve): 9 (39.1) n (%)
AAS7 = 0, OR (95% CI) for rilzabrutinib vs. placebo (Week 12, omalizumab-naïve): 3.085
AAS7 = 0, RRD (%) for rilzabrutinib vs. placebo (95% CI) (Week 12, omalizumab-naïve): 29.7 %
